Assay results as given in patent US20020137929A1, “1 - (3-heterocyclylphenyl) isothiourea, -isourea, -guanidine and -amidine herbicidal agents” (Intellectual Property Department, BASF Aktiengesellschaft, priority 1998, published 2002).

Tests used:
CASOB (Sicklepod) [1] = assay: Postemergence herbicidal evaluation; type: in vivo, Cassia obtusifolia; conditions: postemergence
Summary of the method: (§1)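 Scores (0–9) reflect plant stand, vigor, malformation, size, chlorosis and general appearance relative to control, read 4 to 5 weeks after treatment and averaged where tests were repeated. Application: about 0.0156–0.500 kg/ha sprayed at 40 psi onto two-week seedlings.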

AMBEL (Ragweed, Common) [2] = assay: Postemergence herbicidal evaluation; type: in vivo, Ambrosia artemisifolia; conditions: postemergence
Summary of the method: as §1

[3] = system: TRZAWR (Wheat, Winter, cv Riband); assay: Postemergence herbicidal evaluation; type: in vivo, Triticum aestivum; conditions: postemergence
Summary of the method: as §1

[4] = system: GLXMAW (Soybean, Williams); assay: Preemergence herbicidal evaluation; type: in vivo, Glycine max, (L.) Merr. cv Williams; conditions: rated 4-5 weeks after treatment
Summary of the method: (§2)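 Seeds were mixed with potting soil and planted on about one inch of soil, then sprayed with test compound in aqueous acetone at about 0.0156 to 0.500 kg per hectare. Plants grew under standard greenhouse care and were visually rated 0-9 against untreated controls 4-5 weeks post-treatment.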

ECHCG (Barnyardgrass) = assay: Postemergence herbicidal evaluation; type: in vivo, Echinochloa crus-galli; conditions: postemergence
Summary of the method: as §1

[5] = system: IPOHE (Morningglory, Ivyleaf); assay: Preemergence herbicidal evaluation; type: in vivo, Ipomoea hederacea; conditions: rated 4-5 weeks after treatment
Summary of the method: as §2

[6] = system: IPOHE (Morningglory, Ivyleaf); assay: Postemergence herbicidal evaluation; type: in vivo, Ipomoea hederacea; conditions: postemergence
Summary of the method: as §1

ABUTH (Velvetleaf) = assay: Preemergence herbicidal evaluation; type: in vivo, Abutilon theophrasti; conditions: rated 4-5 weeks after treatment
Summary of the method: as §2

[7] = system: GLXMAW (Soybean, Williams); assay: Postemergence herbicidal evaluation; type: in vivo, Glycine max, (L.) Merr. cv Williams; conditions: postemergence
Summary of the method: as §1

[8] = system: CHEAL (Lambsquarters, Common); assay: Preemergence herbicidal evaluation; type: in vivo, Chenopodium album; conditions: rated 4-5 weeks after treatment
Summary of the method: as §2

CASOB (Sicklepod) [9] = assay: Preemergence herbicidal evaluation; type: in vivo, Cassia obtusifolia; conditions: rated 4-5 weeks after treatment
Summary of the method: as §2

[10] = system: SAGPY (Arrowhead (Pygmaea)); assay: Preemergence weed control under flooded paddy conditions; type: in vivo, Sagittaria pygmaea; conditions: rated 3-4 weeks after treatment
Summary of the method: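 First, seeds or propagules go into the top 0.5 cm of silt loam; next, water is held 1.5 to 3 cm over the soil; then compound (50/50 acetone/water) is pipetted into it at about 0.0313 to 0.500 kg/ha; finally plants are rated visually 0-9 after three to four weeks.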

AMBEL (Ragweed, Common) [11] = assay: Preemergence herbicidal evaluation; type: in vivo, Ambrosia artemisifolia; conditions: rated 4-5 weeks after treatment
Summary of the method: as §2

ORYSAT (Rice, Tebonnet) = assay: Preemergence herbicidal evaluation; type: in vivo, Oryza sativa, (L.) Tebonnet; conditions: rated 4-5 weeks after treatment
Summary of the method: as §2

[12] = system: CHEAL (Lambsquarters, Common); assay: Postemergence herbicidal evaluation; type: in vivo, Chenopodium album; conditions: postemergence
Summary of the method: as §1

CCOC(=O)C(c1ccc(Cl)cc1)N1C(=O)CSC1=Nc1cc(-n2c(=O)cc(C(F)(F)F)n(C)c2=O)c(F)cc1Cl (racemic) [Compound 79, Ethyl α-(p-chlorophenyl)-2-{{2-chloro-5-[3,6-dihydro-3-methyl-2,6-dioxo-4-(trifluoromethyl)-1(2H)-pyrimidinyl]-4-fluorophenyl}imino}-4-oxo-3-thiazolidineacetate, DL-]
8.0: Preemergence herbicidal rating AMBEL (AMBEL (Ragweed, Common) [11]; rate 0.2500 kg/ha)
5.0: TRZAWR herbicidal rating ([3]; rate 0.0630 kg/ha) | GLXMAW herbicidal rating ([7]; rate 0.0315 kg/ha) | GLXMAW herbicidal rating ([7]; rate 0.0630 kg/ha)
2.0: Preemergence herbicidal rating GLXMAW ([4]; rate 0.2500 kg/ha) | Preemergence herbicidal rating ABUTH (ABUTH (Velvetleaf); rate 0.0625 kg/ha)
0.0: Preemergence herbicidal rating GLXMAW ([4]; rate 0.1250 kg/ha) | Preemergence herbicidal rating IPOHE ([5]; rate 0.0313 kg/ha) | Preemergence herbicidal rating IPOHE ([5]; rate 0.0625 kg/ha) | Preemergence herbicidal rating IPOHE ([5]; rate 0.1250 kg/ha) | Preemergence herbicidal rating ABUTH (ABUTH (Velvetleaf); rate 0.0313 kg/ha) | Preemergence herbicidal rating CASOB (CASOB (Sicklepod) [9]; rate 0.0625 kg/ha) | Preemergence herbicidal rating CASOB (CASOB (Sicklepod) [9]; rate 0.1250 kg/ha) | SAGPY herbicidal effect rating ([10]; 0.0313 kg/ha) | SAGPY herbicidal effect rating ([10]; 0.0625 kg/ha) | Preemergence herbicidal rating ORYSAT (ORYSAT (Rice, Tebonnet); rate 0.0313 kg/ha) | Preemergence herbicidal rating ORYSAT (ORYSAT (Rice, Tebonnet); rate 0.1250 kg/ha)
1.0: CASOB herbicidal rating (CASOB (Sicklepod) [1]; rate 0.0158 kg/ha) | CASOB herbicidal rating (CASOB (Sicklepod) [1]; rate 0.0315 kg/ha) | CASOB herbicidal rating (CASOB (Sicklepod) [1]; rate 0.0630 kg/ha) | Preemergence herbicidal rating GLXMAW ([4]; rate 0.0313 kg/ha) | Preemergence herbicidal rating GLXMAW ([4]; rate 0.0625 kg/ha) | ECHCG herbicidal rating (ECHCG (Barnyardgrass); rate 0.0158 kg/ha) | ECHCG herbicidal rating (ECHCG (Barnyardgrass); rate 0.0315 kg/ha) | ECHCG herbicidal rating (ECHCG (Barnyardgrass); rate 0.0630 kg/ha) | Preemergence herbicidal rating IPOHE ([5]; rate 0.2500 kg/ha) | Preemergence herbicidal rating CASOB (CASOB (Sicklepod) [9]; rate 0.0313 kg/ha) | Preemergence herbicidal rating CASOB (CASOB (Sicklepod) [9]; rate 0.2500 kg/ha) | Preemergence herbicidal rating AMBEL (AMBEL (Ragweed, Common) [11]; rate 0.0313 kg/ha) | Preemergence herbicidal rating AMBEL (AMBEL (Ragweed, Common) [11]; rate 0.1250 kg/ha) | Preemergence herbicidal rating ORYSAT (ORYSAT (Rice, Tebonnet); rate 0.0625 kg/ha) | Preemergence herbicidal rating ORYSAT (ORYSAT (Rice, Tebonnet); rate 0.2500 kg/ha) | CHEAL herbicidal rating ([12]; rate 0.0158 kg/ha)
3.0: TRZAWR herbicidal rating ([3]; rate 0.0158 kg/ha) | Preemergence herbicidal rating AMBEL (AMBEL (Ragweed, Common) [11]; rate 0.0625 kg/ha)
4.5: GLXMAW herbicidal rating ([7]; rate 0.0158 kg/ha)
6.0: AMBEL herbicidal rating (AMBEL (Ragweed, Common) [2]; rate 0.0158 kg/ha) | Preemergence herbicidal rating ABUTH (ABUTH (Velvetleaf); rate 0.1250 kg/ha)
2.5: TRZAWR herbicidal rating ([3]; rate 0.0315 kg/ha)
7.0: AMBEL herbicidal rating (AMBEL (Ragweed, Common) [2]; rate 0.0315 kg/ha) | CHEAL herbicidal rating ([12]; rate 0.0315 kg/ha) | CHEAL herbicidal rating ([12]; rate 0.0630 kg/ha)
9.0: AMBEL herbicidal rating (AMBEL (Ragweed, Common) [2]; rate 0.0630 kg/ha) | IPOHE herbicidal rating ([6]; rate 0.0158 kg/ha) | IPOHE herbicidal rating ([6]; rate 0.0315 kg/ha) | IPOHE herbicidal rating ([6]; rate 0.0630 kg/ha) | Preemergence herbicidal rating ABUTH (ABUTH (Velvetleaf); rate 0.2500 kg/ha) | Preemergence herbicidal rating CHEAL ([8]; rate 0.0313 kg/ha) | Preemergence herbicidal rating CHEAL ([8]; rate 0.0625 kg/ha) | Preemergence herbicidal rating CHEAL ([8]; rate 0.1250 kg/ha) | Preemergence herbicidal rating CHEAL ([8]; rate 0.2500 kg/ha)
4.0: SAGPY herbicidal effect rating ([10]; 0.1250 kg/ha) | SAGPY herbicidal effect rating ([10]; 0.2500 kg/ha)
